In ChEMBL document CHEMBL1152404, “Structure-Activity Relationship of novel phenylacetic CXCR1 inhibitors” (Bioorg Med Chem Lett, 2009):

Key:
[1] = Cytotoxicity against of human polymorphonuclear leukocytes assessed as cell viability by trypan blue dye exclusion assay; design: concentration or dose not given beside the values; conditions: read-out: Activity
[2] = Cytotoxicity against mouse L1.2 cells assessed as cell viability by trypan blue dye exclusion assay; assay type: cell-based; design: concentration or dose not given beside the values; conditions: read-out: Activity

| SMILES | viability [1] [%] | viability [2] [%] |
| --- | --- | --- |
| O=C(O)Cc1ccccc1Nc1c(F)cccc1F | > 95 | > 95 |
| O=C(O)Cc1ccccc1Oc1ccccc1 | > 95 | > 95 |
| O=C(O)Cc1ccccc1Oc1ccccc1F | > 95 | > 95 |
| O=C(O)Cc1ccccc1Oc1ccccc1Cl | > 95 | > 95 |
| O=C(O)Cc1ccccc1Nc1ccccc1F | > 95 | > 95 |
| Cc1ccc(Cl)c(Nc2ccccc2CC(=O)O)c1Cl | > 95 | > 95 |
| CS(=O)(=O)NC(=O)Cc1ccccc1Oc1ccccc1F | > 95 | > 95 |
| CC(C(=O)NS(C)(=O)=O)c1ccccc1Nc1c(Cl)cccc1Cl (configuration not stated) | > 95 | > 95 |
| CC(C(=O)NC(C)(C)C)c1ccccc1Nc1c(Cl)cccc1Cl (configuration not stated) | > 95 | > 95 |
| CC(C(=O)NCCO)c1ccccc1Nc1c(Cl)cccc1Cl (configuration not stated) | > 95 | > 95 |
| Cc1ccccc1Nc1ccccc1CC(=O)O | > 95 | > 95 |
| CC(C(N)=O)c1ccccc1Nc1c(Cl)cccc1Cl (configuration not stated) | > 95 | > 95 |
| CC(C(=O)NCCC[N+](C)(C)C)c1ccccc1Nc1c(Cl)cccc1Cl (configuration not stated) | > 95 | > 95 |
| Cc1cccc(C)c1NC(=O)C(C)c1ccccc1Nc1c(Cl)cccc1Cl (configuration not stated) | > 95 | > 95 |
| O=C(O)Cc1cccc(C(=O)c2ccccc2)c1 | > 95 | > 95 |
| O=C(O)Cc1ccccc1Cc1c(Cl)cccc1Cl | > 95 | > 95 |
| CC(C(=O)NCCCN(C)C)c1ccccc1Nc1c(Cl)cccc1Cl (configuration not stated) | > 95 | > 95 |
| CC(C(=O)O)c1ccccc1Nc1c(Cl)cccc1Cl (configuration not stated) | > 95 | > 95 |
| O=C(O)Cc1ccccc1Nc1ccccc1Cl | > 95 | > 95 |
| O=C(O)Cc1ccccc1Nc1cc(Cl)ccc1Cl | > 95 | > 95 |
| O=C(O)Cc1ccccc1Nc1ccccc1 | > 95 | > 95 |
| CC(C)Cc1ccc([C@@H](C)C(=O)O)cc1 [(R)-IBUPROPHEN] | > 95 | > 95 |
| O=C(O)Cc1ccccc1Nc1c(Cl)cccc1Cl [DICLOFENAC] | > 95 | > 95 |
| CC(C)Cc1ccc(CC(=O)O)cc1 [IBUFENAC] | > 95 | > 95 |
| COc1ccc2c(c1)c(CC(=O)O)c(C)n2C(=O)c1ccc(Cl)cc1 [INDOMETHACIN] | > 95 | > 95 |
| Cc1ccc(C(=O)c2ccc(CC(=O)O)n2C)cc1 [TOLMETIN] | > 95 | > 95 |
